According to paper PMC11968843, “Sulphostin-inspired N-phosphonopiperidones as selective covalent DPP8 and DPP9 inhibitors” (Nature Communications, 2025):
Several values for one entry are separate records, joined by “and”; a condition that tells them apart may be missing. Equal values may be shown once. Read-outs that look alike come from different tables or passages of the source.

Legend:
Type in all cases: biochemical
DPP9 [1] = target: T1, DPP9 (Homo sapiens, UniProt Q86TI2); assay: biochemical; design: purchased Proteros Biostructures GmbH, Germany; conditions: for DPP9 activity [%]: replicates
T1 sequence (Q86TI2 whole entry): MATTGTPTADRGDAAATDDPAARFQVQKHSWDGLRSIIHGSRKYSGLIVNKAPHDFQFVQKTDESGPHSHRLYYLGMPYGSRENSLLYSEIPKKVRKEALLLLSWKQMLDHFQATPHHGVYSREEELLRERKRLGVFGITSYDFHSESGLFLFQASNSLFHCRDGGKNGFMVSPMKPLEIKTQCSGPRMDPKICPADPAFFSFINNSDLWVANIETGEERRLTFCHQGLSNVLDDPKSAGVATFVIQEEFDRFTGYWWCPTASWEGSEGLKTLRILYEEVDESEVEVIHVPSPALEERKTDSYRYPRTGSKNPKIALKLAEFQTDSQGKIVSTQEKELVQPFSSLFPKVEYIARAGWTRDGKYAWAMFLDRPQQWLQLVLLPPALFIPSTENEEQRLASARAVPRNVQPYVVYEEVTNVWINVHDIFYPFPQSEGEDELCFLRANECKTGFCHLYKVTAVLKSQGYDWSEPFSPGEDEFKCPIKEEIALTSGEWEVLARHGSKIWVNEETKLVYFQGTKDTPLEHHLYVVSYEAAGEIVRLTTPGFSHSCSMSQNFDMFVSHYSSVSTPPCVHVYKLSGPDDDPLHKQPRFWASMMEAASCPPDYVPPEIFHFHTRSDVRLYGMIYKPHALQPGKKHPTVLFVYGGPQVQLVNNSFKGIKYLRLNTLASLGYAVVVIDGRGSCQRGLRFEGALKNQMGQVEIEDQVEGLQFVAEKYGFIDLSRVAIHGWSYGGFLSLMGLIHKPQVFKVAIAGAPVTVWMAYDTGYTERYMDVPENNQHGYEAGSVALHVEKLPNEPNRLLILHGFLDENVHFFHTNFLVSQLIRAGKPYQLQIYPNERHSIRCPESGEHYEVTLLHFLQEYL
Protocol: (§1) Enzyme activity of DPP4, DPP8, DPP9 (Proteros Biostructures GmbH, Germany) and PREP (Sigma Aldrich, USA) was determined by measuring the initial velocity of AMC release from the fluorogenic substrate GP-AMC (Sigma Aldrich, USA) using a Tecan Spark® 10 M multimode microplate reader (Tecan Group Ltd., Switzerland) in activity buffer (20 mM HEPES/KOH pH 7.3, 110 mM potassium acetate, 2 mM Mg acetate, 0.5 mM EGTA, 0.02% Tween 20, supplemented with 1 mM DTT) and a final volume of 20 μL for maximal 60 min at 30 °C. Prior to activity measurement, 10 nM enzyme was incubated for 45 min at 30 °C and gentle shaking with the inhibitor compounds in concentrations ranging from 0 to 100 μM. The compounds were dissolved in DMSO and diluted in activity buffer (final DMSO concentration: 1%). […] IC50 values were calculated using Graph-Pad Prism v10.2.3 using the equation: [Inhibitor] vs. response—Variable slope (four parameters). All measurements were performed in triplicates and error bars represent standard errors of the fit.

DPP9 [2] = target: T1, DPP9; assay: Time-dependent DPP9 inhibition kinetics (kobs, KI, kinact, kapp); design: purchased Proteros Biostructures GmbH, Germany; conditions: for kobs: n=3
Protocol: (§2) To calculate the reaction rate of covalent bond formation between DPP proteins and inhibitor, kinact, KI and kapp was determined as previously described[30],[51]. Therefore, 250 µM GP-AMC was added simultaneously with a serial dilution of the inhibitor to 10 nM enzyme. Enzyme activity was measured for a maximum of 120 min at 30 °C, and fluorescence intensities were then plotted against time. Data was fitted to the following equation: Y=(vi/kobs)*(1−exp(−kobs*X)) using Graph-Pad Prism v10.2.3. The obtained pseudo-first-order rate constant was used to determine the maximum enzyme inhibition rate (kinact) and binding affinity (KI) by fitting the plot of kobs against inhibitor concentration to the following equation: Y=kinact/1+(KI/[I]) . The efficiency of covalent bond formation (kapp) was calculated by the ratio of kinact/KI. All measurements were performed in triplicates and error bars represent standard errors of the fit.

DPP8 [3] = target: T2, DPP8 (Homo sapiens, UniProt Q6V1X1); assay: Time-dependent DPP8 inhibition kinetics (kobs, KI, kinact, kapp); conditions: for kobs: n=3
T2 construct: purchased Proteros Biostructures GmbH, Germany
T2 sequence (Q6V1X1 whole entry): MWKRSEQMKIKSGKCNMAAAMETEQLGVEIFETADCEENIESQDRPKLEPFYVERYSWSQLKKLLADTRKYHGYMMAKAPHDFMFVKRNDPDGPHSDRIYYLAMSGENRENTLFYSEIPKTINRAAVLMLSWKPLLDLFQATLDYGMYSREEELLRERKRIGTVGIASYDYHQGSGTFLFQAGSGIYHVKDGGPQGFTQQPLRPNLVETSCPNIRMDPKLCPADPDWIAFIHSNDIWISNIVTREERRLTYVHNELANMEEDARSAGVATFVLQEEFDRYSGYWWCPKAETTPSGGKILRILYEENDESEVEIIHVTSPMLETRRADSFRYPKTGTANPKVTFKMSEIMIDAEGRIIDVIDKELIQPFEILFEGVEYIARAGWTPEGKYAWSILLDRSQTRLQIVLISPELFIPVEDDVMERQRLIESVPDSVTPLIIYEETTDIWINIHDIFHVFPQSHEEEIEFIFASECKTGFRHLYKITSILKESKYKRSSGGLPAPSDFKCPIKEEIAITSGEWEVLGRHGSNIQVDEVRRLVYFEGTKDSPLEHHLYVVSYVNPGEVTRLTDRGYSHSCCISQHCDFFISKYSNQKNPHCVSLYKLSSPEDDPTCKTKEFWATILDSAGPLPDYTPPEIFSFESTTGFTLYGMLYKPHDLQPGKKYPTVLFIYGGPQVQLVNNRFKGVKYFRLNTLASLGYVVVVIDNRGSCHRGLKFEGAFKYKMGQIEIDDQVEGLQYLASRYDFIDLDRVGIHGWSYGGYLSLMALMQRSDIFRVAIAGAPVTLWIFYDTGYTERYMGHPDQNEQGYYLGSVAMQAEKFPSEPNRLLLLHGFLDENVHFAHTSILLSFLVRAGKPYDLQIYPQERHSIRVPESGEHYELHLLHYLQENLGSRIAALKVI
Protocol: as §2

DPP4 [4] = target: T3, DPP4 (Homo sapiens, UniProt P27487); conditions: for kobs: n=3
T3 construct: purchased Proteros Biostructures GmbH, Germany
T3 sequence (P27487 whole entry): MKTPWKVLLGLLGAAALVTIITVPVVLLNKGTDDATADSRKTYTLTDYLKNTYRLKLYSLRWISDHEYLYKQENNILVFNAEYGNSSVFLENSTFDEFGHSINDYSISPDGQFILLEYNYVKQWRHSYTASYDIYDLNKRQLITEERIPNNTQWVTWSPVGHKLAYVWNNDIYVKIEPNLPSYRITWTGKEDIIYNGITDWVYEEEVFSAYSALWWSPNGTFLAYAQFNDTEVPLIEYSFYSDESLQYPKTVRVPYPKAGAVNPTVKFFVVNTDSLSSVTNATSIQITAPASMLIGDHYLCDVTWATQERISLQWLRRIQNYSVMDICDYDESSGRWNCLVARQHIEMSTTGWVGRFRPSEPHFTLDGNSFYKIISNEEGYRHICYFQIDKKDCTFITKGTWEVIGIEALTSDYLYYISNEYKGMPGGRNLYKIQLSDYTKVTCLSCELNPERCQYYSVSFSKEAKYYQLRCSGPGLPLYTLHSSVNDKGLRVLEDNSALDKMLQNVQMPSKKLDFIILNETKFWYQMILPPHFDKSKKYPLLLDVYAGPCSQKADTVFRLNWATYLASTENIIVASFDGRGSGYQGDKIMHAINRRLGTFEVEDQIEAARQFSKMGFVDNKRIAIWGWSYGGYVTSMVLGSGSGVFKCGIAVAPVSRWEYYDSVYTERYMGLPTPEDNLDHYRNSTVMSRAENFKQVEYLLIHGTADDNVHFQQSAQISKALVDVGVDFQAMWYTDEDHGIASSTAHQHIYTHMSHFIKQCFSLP
Protocol: as §2, with “Therefore, 250 µM GP-AMC was added simultaneously with a serial dilution of the inhibitor to 10 nM enzyme.” left out

DPP4 [5] = target: T3, DPP4; assay: biochemical; conditions: for DPP4 activity [%]: replicates
Protocol: as §1

DPP8 [6] = target: T2, DPP8; assay: biochemical; conditions: for DPP8 activity [%]: replicates
Protocol: as §1

[7] = irreversible inhibition, fit of kobs vs inhibitor concentration

In the case of `C#CCCCP(=O)(OCC)N1CCCC(N)C1=O.O=C(O)C(F)(F)F` (mixture of isomers) [Compound 9], the IC50 (DPP9 [1]; GP-AMC 250 µM, 10 nM enzyme, 45 min pre-incubation at 30 °C, read-out: IC50 DPP9) is reported as 1.57 ± 0.092 µM, the “DPP9 activity [%]” value (DPP9 [1]; c 156.25 nM) is reported as 96.2584% and 100.319% and 101.85% and the “DPP9 activity [%]” value (DPP9 [1]; c 312.5 nM) is reported as 100.858% and 91.3501% and 92.0123%. The “DPP9 activity [%]” value (DPP9 [1]; c 625 nM) was 84.7331% and 76.9427% and 84.4618%, the “DPP9 activity [%]” value (DPP9 [1]; c 1562.5 nM) was 49.8961% and 58.6041% and 49.6299% and the “DPP9 activity [%]” value (DPP9 [1]; c 2500 nM) was 31.5472% and 27.5156% and 32.2809%. For the same compound, the “DPP9 activity [%]” value (DPP9 [1]; c 3125 nM) was 24.6772% and 31.33% and 43.1829%, the “DPP9 activity [%]” value (DPP9 [1]; c 5000 nM) was 13.8796% and 12.6206% and 14.7121% and the “DPP9 activity [%]” value (DPP9 [1]; c 6250 nM) was 10.217% and 12.6398% and 8.944%. For the same compound, the “DPP9 activity [%]” value (DPP9 [1]; c 10000 nM) was 3.977% and 3.748% and 3.468%, the “DPP9 activity [%]” value (DPP9 [1]; c 25000 nM) was 1.6052% and 1.507% and 1.185% and the “DPP9 activity [%]” value (DPP9 [1]; c 50000 nM) was 0.4873% and 0.1919% and 0.2191%. The “DPP9 activity [%]” value (DPP9 [1]; c 100000 nM) was -0.1705% and -0.1127% and 0.03998%, the kapp (DPP9 [2]; DPP9) was 68.49 M⁻¹ s⁻¹ and the kinact best fit (DPP9 [2]; DPP9) was 0.0003473 s⁻¹. The kobs (DPP9 [2]; DPP9, c 312.5 nM) was 2.92e-05 s⁻¹, the kobs (DPP9 [2]; DPP9, c 625 nM) was 4.78e-05 s⁻¹ and the kobs (DPP9 [2]; DPP9, c 2500 nM) was 0.000103 s⁻¹. For the same compound, the KI (inactivation) (DPP9 [2]; DPP9, fit of kobs vs inhibitor concentration, read-out: KI best fit) was 5.07 µM, the KI (inactivation) (DPP9 [2]; DPP9, read-out: KI best fit) was 5.07 µM and the “kinact DPP9” value (DPP9 [2]; [7]) was 0.00035 ± 0.00007 s⁻¹. The KI (inactivation) (DPP9 [2]; irreversible inhibition, fit of kobs vs inhibitor concentration, read-out: KI DPP9) was 5.07 µM, the “kapp DPP9” value (DPP9 [2]; ratio kinact/KI) was 68 M⁻¹ s⁻¹ and the kapp (DPP8 [3]; DPP8) was 170.93 M⁻¹ s⁻¹. It also gave a kinact best fit (DPP8 [3]; DPP8) of 0.0005333 s⁻¹, a kobs (DPP8 [3]; DPP8, c 312.5 nM) of 5.77e-05 s⁻¹ and a kobs (DPP8 [3]; DPP8, c 625 nM) of 8.71e-05 s⁻¹. For the same compound, the kobs (DPP8 [3]; DPP8, c 2500 nM) was 0.000239 s⁻¹, the KI (inactivation) (DPP8 [3]; DPP8, fit of kobs vs inhibitor concentration, read-out: KI best fit) was 3.12 µM and the KI (inactivation) (DPP8 [3]; DPP8, read-out: KI best fit) was 3.12 µM. The “kinact DPP8” value (DPP8 [3]; [7]) was 0.00053 ± 0.00004 s⁻¹, the KI (inactivation) (DPP8 [3]; irreversible inhibition, fit of kobs vs inhibitor concentration, read-out: KI DPP8) was 3.12 µM and the “kapp DPP8” value (DPP8 [3]; ratio kinact/KI) was 171 M⁻¹ s⁻¹. The kapp (DPP4 [4]; DPP4) was 481.66 M⁻¹ s⁻¹, the kinact best fit (DPP4 [4]; DPP4) was 0.005372 s⁻¹ and the kobs (DPP4 [4]; DPP4, c 6250 nM) was 0.002232 s⁻¹. It also gave a kobs (DPP4 [4]; DPP4, c 25000 nM) of 0.003486 s⁻¹, a kobs (DPP4 [4]; DPP4, c 50000 nM) of 0.004579 s⁻¹ and a KI (inactivation) (DPP4 [4]; DPP4, fit of kobs vs inhibitor concentration, read-out: KI best fit) of 11.2 µM. The KI (inactivation) (DPP4 [4]; DPP4, read-out: KI best fit) was 11.2 µM, the “kinact DPP4” value (DPP4 [4]; [7]) was 0.00537 ± 0.00033 s⁻¹ and the KI (inactivation) (DPP4 [4]; irreversible inhibition, fit of kobs vs inhibitor concentration, read-out: KI DPP4) was 11.2 µM. For the same compound, the “kapp DPP4” value (DPP4 [4]; ratio kinact/KI) was 482 M⁻¹ s⁻¹, the IC50 (DPP4 [5]; GP-AMC 250 µM, 10 nM enzyme, 45 min pre-incubation at 30 °C, read-out: IC50 DPP4) was 2.99 ± 0.97 µM and the “DPP4 activity [%]” value (DPP4 [5]; c 1562.5 nM) was 65.3186% and 69.0903% and 69.4857%. For the same compound, the “DPP4 activity [%]” value (DPP4 [5]; c 3125 nM) was 56.1551% and 36.739%, the “DPP4 activity [%]” value (DPP4 [5]; c 6250 nM) was 16.7655% and 22.4037% and 25.1515% and the “DPP4 activity [%]” value (DPP4 [5]; c 25000 nM) was 0.4601% and 0.7453% and 0.687%. The “DPP4 activity [%]” value (DPP4 [5]; c 50000 nM) was 0.1815% and 0.2139% and 0.1037%, the “DPP4 activity [%]” value (DPP4 [5]; c 100000 nM) was 0.1102% and 0.02592% and 0.006479% and the “potency relative to C8-alkyne compound 10” value (DPP8 [6]; DPP8/9 IC50, fold more potent) was “about 20 fold”. For the same compound, the IC50 (DPP8 [6]; GP-AMC 250 µM, 10 nM enzyme, 45 min pre-incubation at 30 °C, read-out: IC50 DPP8) was 0.668 ± 0.043 µM, the “DPP8 activity [%]” value (DPP8 [6]; c 15.625 nM) was 88.0116% and 95.2585% and 92.8653% and the “DPP8 activity [%]” value (DPP8 [6]; c 31.25 nM) was 98.7519% and 93.0125% and 99.7656%. The “DPP8 activity [%]” value (DPP8 [6]; c 62.5 nM) was 100.514% and 96.8883% and 98.9251%, the “DPP8 activity [%]” value (DPP8 [6]; c 250 nM) was 89.8086% and 92.0804% and 74.9743% and the “DPP8 activity [%]” value (DPP8 [6]; c 312.5 nM) was 76.3712% and 75.8504% and 60.7309%. For the same compound, the “DPP8 activity [%]” value (DPP8 [6]; c 500 nM) was 58.2452% and 66.831% and 55.6678%, the “DPP8 activity [%]” value (DPP8 [6]; c 625 nM) was 43.0971% and 49.0696% and 43.2225% and the “DPP8 activity [%]” value (DPP8 [6]; c 1000 nM) was 45.7318% and 41.4388% and 38.9079%. The “DPP8 activity [%]” value (DPP8 [6]; c 1562.5 nM) was 30.9827% and 31.9714% and 36.8996%, the “DPP8 activity [%]” value (DPP8 [6]; c 2500 nM) was 6.46% and 6.6893% and 8.361% and the “DPP8 activity [%]” value (DPP8 [6]; c 3125 nM) was 13.5787% and 24.1011% and 12.0301%. For the same compound, the “DPP8 activity [%]” value (DPP8 [6]; c 5000 nM) was 1.65% and 1.018% and 2.196%, the “DPP8 activity [%]” value (DPP8 [6]; c 6250 nM) was 4.899% and 5.3654% and 4.34% and the “DPP8 activity [%]” value (DPP8 [6]; c 10000 nM) was 0.2086% and 0.07371% and -0.1898%. The “DPP8 activity [%]” value (DPP8 [6]; c 25000 nM) was 1.765% and 1.4465% and 2.043%, the “DPP8 activity [%]” value (DPP8 [6]; c 50000 nM) was 2.554% and 1.757% and 1.4548% and the “DPP8 activity [%]” value (DPP8 [6]; c 100000 nM) was 1.577% and 1.418% and 1.083%. For the same compound, the “potency relative to alkyl compound 5” value (DPP8 [6]; fold more potent inhibitor) was “about 20 fold”.
